According to patent US9896445B2, “Heterocyclic inhibitors of ERK1 and ERK2 and their use in the treatment of cancer” (Asana Biosciences, LLC, priority 2015, dated 2018):

Legend:
ERK1 = molecular target: T1, ERK1 (Homo sapiens, UniProt P27361); test: ERK1 HTRF (biochemical) assay; conditions: HTRF
T1 construct: purchased Jubilant Biosys
Description: ERK1 and ERK2 HTRF (Biochemical) Assays
These assays employed a homogeneous time resolved fluorescence (HTRF) technique. […] The plate was incubated at room temperature for 60 min with shaking. […] The IC50 values (half maximal inhibitory concentration values) were subsequently determined using a sigmoidal dose-response curve (variable slope) in GraphPad Prism® 5 software.

ERK2 = molecular target: T2, ERK2 (Homo sapiens, UniProt P28482); test: ERK2 HTRF (biochemical) assay; conditions: HTRF
T2 construct: purchased Jubilant Biosys
How it was run: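 Readout was time-resolved FRET between europium anti-phospho-MBP and streptavidin-APC after a 60-min room-temperature kinase step. That step used ERK2 (25 nM in enzyme mix), biotinylated MBP peptide (1 uM) and ATP (24 uM) from the substrate mix, in pH 7.5 Tris buffer.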

T1 sequence (P27361 whole entry): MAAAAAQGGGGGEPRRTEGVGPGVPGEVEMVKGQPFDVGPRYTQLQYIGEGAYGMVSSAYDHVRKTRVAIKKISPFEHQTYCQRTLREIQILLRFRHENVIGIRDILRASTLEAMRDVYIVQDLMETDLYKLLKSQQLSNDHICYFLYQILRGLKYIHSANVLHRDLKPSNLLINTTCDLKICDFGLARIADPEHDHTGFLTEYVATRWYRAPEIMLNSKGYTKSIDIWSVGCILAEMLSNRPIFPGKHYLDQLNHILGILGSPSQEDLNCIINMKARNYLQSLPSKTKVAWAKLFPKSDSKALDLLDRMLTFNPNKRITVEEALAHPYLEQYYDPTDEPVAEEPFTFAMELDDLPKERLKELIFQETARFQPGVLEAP
T2 sequence (P28482 whole entry): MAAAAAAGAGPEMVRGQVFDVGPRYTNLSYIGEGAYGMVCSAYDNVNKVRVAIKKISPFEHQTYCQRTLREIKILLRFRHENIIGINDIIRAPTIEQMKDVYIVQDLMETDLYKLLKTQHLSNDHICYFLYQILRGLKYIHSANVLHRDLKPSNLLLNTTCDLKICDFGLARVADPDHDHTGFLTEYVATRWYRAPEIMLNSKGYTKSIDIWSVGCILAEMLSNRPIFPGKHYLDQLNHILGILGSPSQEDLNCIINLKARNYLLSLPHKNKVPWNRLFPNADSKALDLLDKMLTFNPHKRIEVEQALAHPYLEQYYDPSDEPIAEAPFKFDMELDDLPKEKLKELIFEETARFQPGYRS

| SMILES | IC50 (ERK1) [µM] | IC50 (ERK2) [µM] |
| --- | --- | --- |
| Cc1cnc(NC2CCCOC2)nc1-n1ccc(C(=O)N[C@H](CO)c2cccc(Cl)c2)c1 (stereo partly drawn) [Compound 152, N-((S)-1-(3-chlorophenyl)-2-hydroxyethyl)-1-(5-methyl-2-((tetrahydro-2H-pyran-3-yl)amino)pyrimidin-4-yl)-1H-pyrrole-3-carboxamide] | < 0.05 | ≤ 0.05 |
| Cc1cnc(Nc2ccc(F)cc2)nc1-n1cc(C(=O)NC(CO)c2ccccc2)nc1C (stereo not drawn) [Compound 153, 1-(2-((4-Fluorophenyl)amino)-5-methylpyrimidin-4-yl)-N-(2-hydroxy-1-phenylethyl)-2-methyl-1H-imidazole-4-carboxamide] | 0.1 to 0.5 | 0.1 to 0.5 |
| COc1cc(Nc2ncc(C)c(-n3ccc(C(=O)NC(CO)c4ccccc4)c3)n2)ccc1F (stereo not drawn) [Compound 154, 1-(2-((4-fluoro-3-methoxyphenyl)amino)-5-methyl-pyrimidin-4-yl)-N-(2-hydroxy-1-phenylethyl)-1H-pyrrole-3-carboxamide] | < 0.05 | ≤ 0.05 |
| Cc1cnc(Nc2ccc(F)cc2)nc1-n1cnc(C(=O)NC(CO)c2cccc(Cl)c2)c1 (stereo not drawn) [Compound 155, N-(1-(3-chlorophenyl)-2-hydroxyethyl)-1-(2-((4-fluoro-phenyl)amino)-5-methylpyrimidin-4-yl)-1H-imidazole-4-carboxamide] | < 0.05 | ≤ 0.05 |
| Cc1cnc(NC2CCCOC2)nc1-n1ccc(C(=O)N[C@H](CO)c2cccc(Cl)c2)c1 (stereo partly drawn) [Compound 156, N-((S)-1-(3-chloro-phenyl)-2-hydroxy-ethyl)-1-(5-methyl-2-((tetrahydro-2H-pyran-3-yl)amino)-pyrimidin-4-yl)-1H-pyrrole-3-carboxamide] | < 0.05 | ≤ 0.05 |
| Cc1cnc(NC2CCOC2)nc1-n1ccc(C(=O)N[C@H](CO)c2ccc(F)c(Cl)c2)c1 (stereo partly drawn) [Compound 157, N-((S)-1-(3-chloro-4-fluorophenyl)-2-hydroxyethyl)-1-(5-methyl-2-((tetrahydrofuran-3-yl)amino)pyrimidin-4-yl)-1H-pyrrole-3-carboxamide] | < 0.05 | ≤ 0.05 |
| CC(=O)NCC(NC(=O)c1ccn(-c2nc(Nc3ccc4c(c3)OC(F)(F)O4)ncc2C)c1)c1cccc(Cl)c1 (stereo not drawn) [Compound 158, N-(2-acetamido-1-(3-chlorophenyl)-ethyl)-1-(2-((2,2-difluorobenzo[d] [1,3]dioxol-5-yl)-amino)-5-methyl-pyrimidin-4-yl)-1H-pyrrole-3-carboxamide] | 0.1 to 0.5 | 0.05 to 0.1 |
| Cc1cnc(Nc2cccc3c2OC(F)(F)O3)nc1-n1ccc(C(=O)NC(CO)c2cccc(Cl)c2)c1 (stereo not drawn) [Compound 160, N-(1-(3-chloro-phenyl)-2-hydroxy-ethyl)-1-(2-((2,2-difluoro-benzo[d][1,3]dioxol-4-yl)amino)-5-methylpyrimidin-4-yl)-1H-pyrrole-3-carboxamide] | < 0.05 | ≤ 0.05 |
| Cc1cnc(N[C@H]2CCOC2)nc1-n1ccc(C(=O)N[C@H](CO)c2cccc(Cl)c2)c1 [Compound 161, N-((S)-1-(3-chlorophenyl)-2-hydroxyethyl)-1-(5-methyl-2-(((S)-tetrahydrofuran-3-yl)amino)pyrimidin-4-yl)-1H-pyrrole-3-carboxamide] | < 0.05 | ≤ 0.05 |
| Cc1cnc(N[C@@H]2CCOC2)nc1-n1ccc(C(=O)N[C@H](CO)c2cccc(Cl)c2)c1 [Compound 162, N-((S)-1-(3-chlorophenyl)-2-hydroxyethyl)-1-(5-methyl-2-(((R)-tetrahydrofuran-3-yl)amino)pyrimidin-4-yl)-1H-pyrrole-3-carboxamide] | < 0.05 | ≤ 0.05 |
| O=C(NC(CO)c1cccc(Cl)c1)c1cn(-c2ccnc(Nc3ccc4c(c3)CCO4)c2)cn1 (stereo not drawn) [Compound 163, N-(1-(3-chlorophenyl)-2-hydroxyethyl)-1-(2-((2,3-dihydrobenzofuran-5-yl)amino)pyridin-4-yl)-1H-imidazole-4-carboxamide] | < 0.05 | ≤ 0.05 |
| Cc1cnc(Nc2ccc(F)cc2)cc1-n1ccc(C(=O)NC(CN)c2ccc(F)c(Cl)c2)c1 (stereo not drawn) [Compound 164, N-(2-amino-1-(3-chloro-4-fluoro-phenyl)ethyl)-1-(2-((4-fluorophenyl)-amino)-5-methyl-pyridin-4-yl)-1H-pyrrole-3-carboxamide] | < 0.05 | ≤ 0.05 |

Results, then the compound that gave them:

| IC50 (ERK1) [µM] | IC50 (ERK2) [µM] | SMILES |
| --- | --- | --- |
| < 0.05 | ≤ 0.05 | Cc1cnc(NC2CCOC2)cc1-n1ccc(C(=O)NC(CO)c2cccc(Cl)c2)c1 (stereo not drawn) [Compound 165, N-(1-(3-chloro-phenyl)-2-hydroxyethyl)-1-(5-methyl-2-((tetrahydrofuran-3-yl)amino)pyridin-4-yl)-1H-pyrrole-3-carboxamide] |
| < 0.05 | ≤ 0.05 | Cc1cnc(Nc2ccc(F)cc2Cl)nc1-n1cnc(C(=O)NC(CO)c2cccc(Cl)c2)c1 (stereo not drawn) [Compound 166, 1-(2-((2-chloro-4-fluorophenyl)amino)-5-methyl-pyrimidin-4-yl)-N-(1-(3-chlorophenyl)-2-hydroxyethyl)-1H-imidazole-4-carboxamide] |
| < 0.05 | ≤ 0.05 | CC[C@H](CO)Nc1ncc(C)c(-n2ccc(C(=O)NC(CO)c3cccc(Cl)c3)c2)n1 (stereo partly drawn) [Compound 167, N-(1-(3-chloro-phenyl)-2-hydroxy-ethyl)-1-(2-(((R)-1-hydroxybutan-2-yl)amino)-5-methylpyrimidin-4-yl)-1H-pyrrole-3-carboxamide] |
| < 0.05 | 0.05 to 0.1 | CC[C@H](CO)Nc1cc(-n2cnc(C(=O)NC(CO)c3cccc(Cl)c3)c2)c(Cl)cn1 (stereo partly drawn) [Compound 168, 1-(5-chloro-2-(((R)-1-hydroxybutan-2-yl)amino)pyridin-4-yl)-N-(1-(3-chlorophenyl)-2-hydroxyethyl)-1H-imidazole-4-carboxamide] |
| 0.05 to 0.1 | 0.05 to 0.1 | Cc1cnc(Nc2ccc(F)cc2Cl)nc1-n1ccc(C(=O)NC(CN)c2cccc(Cl)c2)c1 (stereo not drawn) [Compound 169, N-(2-amino-1-(3-chlorophenyl)ethyl)-1-(2-((2-chloro-4-fluorophenyl)amino)-5-methyl-pyrimidin-4-yl)-1H-pyrrole-3-carboxamide] |
| < 0.05 | ≤ 0.05 | O=C(N[C@H](CO)c1cccc(Cl)c1)c1cn(-c2ccnc(NC3CCOC3)c2)cn1 (stereo partly drawn) [Compound 170, N-((S)-1-(3-chlorophenyl)-2-hydroxyethyl)-1-(2-((tetrahydrofuran-3-yl)amino)pyridin-4-yl)-1H-imidazole-4-carboxamide] |
| < 0.05 | ≤ 0.05 | Cc1cnc(Nc2cccnc2)cc1-n1ccc(C(=O)NC(CO)c2ccc(F)c(Cl)c2)c1 (stereo not drawn) [Compound 171, N-(1-(3-chloro-4-fluorophenyl)-2-hydroxyethyl)-1-(5-methyl-2-(pyridin-3-ylamino)pyridin-4-yl)-1H-pyrrole-3-carboxamide] |
| < 0.05 | ≤ 0.05 | Cc1cnc(Nc2ccc3c(c2)OCO3)nc1-n1ccc(C(=O)NC(CO)c2ccc(F)cc2)c1 (stereo not drawn) [Compound 172, 1-(2-(benzo[d][1,3]dioxol-5-ylamino)-5-methylpyrimidin-4-yl)-N-(1-(4-fluorophenyl)-2-hydroxyethyl)-1H-pyrrole-3-carboxamide] |
| < 0.05 | ≤ 0.05 | Cc1cnc(Nc2ccc3c(c2)CCCO3)nc1-n1ccc(C(=O)NC(CO)c2ccccc2)c1 (stereo not drawn) [Compound 173, 1-(2-(chroman-6-ylamino)-5-methyl-pyrimidin-4-yl)-N-(2-hydroxy-1-phenylethyl)-1H-pyrrole-3-carboxamide] |
| < 0.05 | ≤ 0.05 | Cc1cnc(NC2CCNC2)nc1-n1ccc(C(=O)N[C@H](CO)c2cccc(Cl)c2)c1 (stereo partly drawn) [Compound 174, N-((S)-1-(3-chlorophenyl)-2-hydroxyethyl)-1-(5-methyl-2-(pyrrolidin-3-ylamino)pyrimidin-4-yl)-1H-pyrrole-3-carboxamide] |
| < 0.05 | ≤ 0.05 | Cc1cnc(Nc2ccc(F)c(N3CCOCC3)c2)nc1-n1ccc(C(=O)NC(CO)c2cccc(Cl)c2)c1 (stereo not drawn) [Compound 175, N-(1-(3-chloro-phenyl)-2-hydroxy-ethyl)-1-(2-((4-fluoro-3-morpholinophenyl)amino)-5-methyl-pyrimidin-4-yl)-1H-pyrrole-3-carboxamide] |
| < 0.05 | ≤ 0.05 | O=C(NC(CO)c1cccc(Cl)c1)c1ccn(-c2ccnc(Nc3ccc4c(c3)OC(F)(F)O4)n2)c1 (stereo not drawn) [Compound 176, N-(1-(3-chloro-phenyl)-2-hydroxyethyl)-1-(2-((2,2-difluoro-benzo[d][1,3]dioxol-5-yl)amino)-pyrimidin-4-yl)-1H-pyrrole-3-carboxamide] |
| < 0.05 | ≤ 0.05 | Cc1cnc(Nc2ccc(F)cc2)nc1-n1cnc(C(=O)NC(CN)c2cccc(Cl)c2)c1 (stereo not drawn) [Compound 177, N-(2-amino-1-(3-chlorophenyl)ethyl)-1-(2-((4-fluoro-phenyl)amino)-5-methylpyrimidin-4-yl)-1H-imidazole-4-carboxamide] |
| 0.1 to 0.5 | 0.1 to 0.5 | Cc1cnc(Nc2ccc(N3CCC(N4CCNCC4)CC3)cc2)nc1-n1ccc(C(=O)NC(CO)c2ccccc2)c1 (stereo not drawn) [Compound 178, N-(2-hydroxy-1-phenylethyl)-1-(5-methyl-2-((4-(4-(piperazin-1-yl)-piperidin-1-yl)-phenyl)amino)pyrimidin-4-yl)-1H-pyrrole-3-carboxamide] |
| < 0.05 | ≤ 0.05 | Cc1cnc(Nc2ccc(F)c(C(=O)N3CCN(C)CC3)c2)nc1-n1ccc(C(=O)NC(CO)c2cccc(Cl)c2)c1 (stereo not drawn) [Compound 179, N-(1-(3-chlorophenyl)-2-hydroxyethyl)-1-(2-((4-fluoro-3-(4-methylpiperazine-1-carbonyl)phenyl)amino)-5-methyl-pyrimidin-4-yl)-1H-pyrrole-3-carboxamide] |
